Assay results as given in ChEMBL document CHEMBL1125246, “Configuration and preferential solid-state conformations of perindoprilat (S-9780). Comparison with the crystal structures of other ACE inhibitors and conclusions related to structure-activity relationships” (J Med Chem, 1991).
pIC50: −log10 of the molar value.

Biological target: T1, Angiotensin-converting enzyme (Oryctolagus cuniculus, UniProt P12822)
T1 sequence (P12822 whole entry): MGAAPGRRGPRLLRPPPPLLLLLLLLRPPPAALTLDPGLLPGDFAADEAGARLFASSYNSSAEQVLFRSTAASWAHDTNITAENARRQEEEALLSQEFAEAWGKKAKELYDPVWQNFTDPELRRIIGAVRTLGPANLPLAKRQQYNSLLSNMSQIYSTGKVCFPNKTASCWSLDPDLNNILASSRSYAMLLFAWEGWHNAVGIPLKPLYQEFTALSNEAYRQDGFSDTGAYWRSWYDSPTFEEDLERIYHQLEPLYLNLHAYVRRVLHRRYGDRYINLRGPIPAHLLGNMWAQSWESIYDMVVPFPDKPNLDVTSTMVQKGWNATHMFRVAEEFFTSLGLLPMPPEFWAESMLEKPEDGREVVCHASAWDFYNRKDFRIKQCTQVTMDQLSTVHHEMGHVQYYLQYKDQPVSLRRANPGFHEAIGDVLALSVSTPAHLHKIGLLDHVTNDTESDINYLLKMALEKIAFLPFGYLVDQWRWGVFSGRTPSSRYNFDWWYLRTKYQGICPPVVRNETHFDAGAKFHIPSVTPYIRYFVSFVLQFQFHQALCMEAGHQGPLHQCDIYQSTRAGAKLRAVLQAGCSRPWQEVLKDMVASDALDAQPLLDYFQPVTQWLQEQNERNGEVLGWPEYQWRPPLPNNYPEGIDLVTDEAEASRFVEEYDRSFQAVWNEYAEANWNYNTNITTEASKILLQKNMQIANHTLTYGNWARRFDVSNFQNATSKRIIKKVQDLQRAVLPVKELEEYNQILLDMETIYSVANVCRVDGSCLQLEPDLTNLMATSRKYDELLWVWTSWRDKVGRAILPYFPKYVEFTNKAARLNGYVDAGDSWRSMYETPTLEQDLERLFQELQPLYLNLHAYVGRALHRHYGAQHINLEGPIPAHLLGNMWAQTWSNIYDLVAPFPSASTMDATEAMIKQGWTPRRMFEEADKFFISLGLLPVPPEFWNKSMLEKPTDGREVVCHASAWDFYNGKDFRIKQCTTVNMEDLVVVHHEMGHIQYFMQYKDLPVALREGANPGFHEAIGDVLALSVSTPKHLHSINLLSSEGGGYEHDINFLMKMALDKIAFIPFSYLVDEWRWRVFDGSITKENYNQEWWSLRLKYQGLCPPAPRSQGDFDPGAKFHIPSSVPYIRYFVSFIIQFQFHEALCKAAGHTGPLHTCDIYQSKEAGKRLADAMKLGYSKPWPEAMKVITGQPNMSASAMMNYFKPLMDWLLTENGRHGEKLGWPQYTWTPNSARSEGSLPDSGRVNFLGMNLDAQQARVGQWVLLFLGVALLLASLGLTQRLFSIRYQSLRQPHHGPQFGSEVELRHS
Experiment: In vitro activity against angiotensin I converting enzyme especially against Hip-His-Leu residues

| Structure (SMILES) | pIC50 |
| --- | --- |
| CCCC(N[C@H](C)C(=O)N1C(C(=O)O)CC2CCCCC21)C(=O)O (stereo not given in full) | 5.96 |
| O=C(O)C1CCCN1C(=O)CCS (stereo not given) | 6.70 |
| O=C(O)[C@H](CCc1ccccc1)NCC(=O)N1CCC[C@H]1C(=O)O | 6.64 |
| CCC[C@H](NCC(=O)N1C2CCCCC2C[C@H]1C(=O)O)C(=O)O (stereo not given in full) | 8.72 |
| CCCC(N[C@@H](C)C(=O)N1C(C(=O)O)CC2CCCCC21)C(=O)O (stereo not given in full) | 8.82 |
